Test [1] has as its target T1, cyclooxygenase-I (human COX-1) (Homo sapiens, UniProt P23219).
T1 construct: arachidonic acid-induced aggregation of washed human thrombocytes; endogenous in cells; host or cells: washed human thrombocytes (blood platelets)
Kind of test: Human COX-1 Test (inhibition of arachidonic acid-induced aggregation of washed human thrombocytes). It counts as cell-based. Particulars: arachidonic acid 10 μM final concentration, 37° C., test substance added 2 minutes before. Here is the method:
Inhibition of the arachidonic acid-induced aggregation of washed human thrombocytes was used as a test system for an estimation of the inhibition of cyclooxygenase-I. A thrombocyte suspension at 37° C. was added to the test substances 2 minutes before addition of the arachidonic acid (10 μM final concentration) and the aggregation course was recorded via an aggregometer. With the assistance of a concentration-effect curve, the concentration of test substance was determined at which 50% aggregation was measured (IC50).

For test [2], the target named is T2, cyclooxygenase-II (human COX-2) (Homo sapiens, UniProt P35354).
T2 construct: endogenous in cells
T2 sequence (P35354 18-604): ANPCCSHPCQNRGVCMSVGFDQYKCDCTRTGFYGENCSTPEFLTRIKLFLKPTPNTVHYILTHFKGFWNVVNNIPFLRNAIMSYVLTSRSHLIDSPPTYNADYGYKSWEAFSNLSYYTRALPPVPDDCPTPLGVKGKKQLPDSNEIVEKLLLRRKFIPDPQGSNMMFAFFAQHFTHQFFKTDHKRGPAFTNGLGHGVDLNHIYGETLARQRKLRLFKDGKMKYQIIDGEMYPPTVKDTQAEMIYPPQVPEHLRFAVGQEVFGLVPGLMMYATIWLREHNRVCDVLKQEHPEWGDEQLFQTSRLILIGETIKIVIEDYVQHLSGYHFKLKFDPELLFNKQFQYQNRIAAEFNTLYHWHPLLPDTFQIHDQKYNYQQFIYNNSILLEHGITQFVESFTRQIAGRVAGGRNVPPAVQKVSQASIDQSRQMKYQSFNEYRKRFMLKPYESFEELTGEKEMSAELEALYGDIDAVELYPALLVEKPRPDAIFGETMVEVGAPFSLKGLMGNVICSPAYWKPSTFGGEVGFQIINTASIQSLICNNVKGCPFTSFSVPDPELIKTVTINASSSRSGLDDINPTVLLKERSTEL
Description: Human COX-2 Test (LPS-stimulated human monocytoid cell line, arachidonic acid, ELISA of cyclooxygenase products). It counts as cell-based. Particulars: for IC50: LPS-stimulated human monocytoid cell line, half an hour incubation, then arachidonic acid 15 minutes, 37° C.; for COX I/COX II (selectivity): ratio of COX I IC50 to COX II IC50. Here is the method: Cells of a human monocytoid cell line were stimulated with lipopolysaccharide (LPS) (incubator at 37° C., 5% CO2 -enriched atmosphere and almost 100% atmospheric humidity), in order to induce COX-2. Following this, the culture medium (RPMI 1640, enriched with 10% FCS, 2 mM glutamine, 10000 U/ml penicillin, […] and 1 mM pyruvate) is refreshed and potential inhibitor substances of cyclooxygenase-II, dissolved in culture medium or in phosphate-buffered saline or in some other solvent compatible with cell cultures, are added and then incubated for half an hour as described above. Arachidonic acid is added by pipette and incubation is carried out for a further 15 minutes. The culture supernatant of the cells is removed and its content of products of cyclooxygenase metabolism (e.g. Prostaglandin E2, Prostaglandin F1a, Thromboxane B2) is measured by ELISA.
Background: An ELISA detects its analyte on a solid surface through an enzyme-linked reagent.

Usually IC50 stands for the concentration that inhibits the measured activity by half.

T1 sequence (P23219 24-599): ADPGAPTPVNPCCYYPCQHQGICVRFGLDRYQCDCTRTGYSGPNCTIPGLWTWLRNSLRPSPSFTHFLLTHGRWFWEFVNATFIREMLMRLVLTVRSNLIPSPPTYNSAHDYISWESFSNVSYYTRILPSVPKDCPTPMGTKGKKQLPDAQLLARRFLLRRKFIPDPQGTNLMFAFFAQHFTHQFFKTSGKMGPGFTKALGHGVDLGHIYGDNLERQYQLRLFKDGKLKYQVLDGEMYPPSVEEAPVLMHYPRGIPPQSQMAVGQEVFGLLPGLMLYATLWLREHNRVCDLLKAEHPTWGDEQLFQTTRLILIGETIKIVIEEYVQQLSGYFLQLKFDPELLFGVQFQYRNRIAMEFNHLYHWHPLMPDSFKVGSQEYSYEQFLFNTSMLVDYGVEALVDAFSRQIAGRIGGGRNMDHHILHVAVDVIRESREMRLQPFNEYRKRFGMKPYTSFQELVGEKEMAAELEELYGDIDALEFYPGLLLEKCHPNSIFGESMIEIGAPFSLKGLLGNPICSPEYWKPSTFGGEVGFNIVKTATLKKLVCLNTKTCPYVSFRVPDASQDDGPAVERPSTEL

`CS(=O)(=O)Nc1ccc(S(N)(=O)=O)c(Cl)c1Sc1ccc(Cl)cc1Cl` [Example 1, 3-(2,4-Dichlorophenylthio)-2-chloro-4-methylsulphonylamino-benzosulphonamide] showed an IC50 in test [1] of 25 µM. Further, in test [2], inhibition was half-maximal at 0.1 µM (IC50) and the “COX I/COX II (selectivity)” value is listed as 250.

For `C=CS(=O)(=O)Nc1ccc(S(N)(=O)=O)cc1Sc1ccc(Cl)cc1Cl` [Example 6, 3-(2,4-dichlorophenylthio)-4-vinylsulphonyl-amino-benzosulphonamide], the IC50 in test [1] was determined as 20 µM; in test [2] it was 0.1 µM. The “COX I/COX II (selectivity)” value in test [2] is given as 200.

For the origin of these results see patent US6297282A, “Substituted derivatives of benzosulphonamides as inhibitors of the enzyme cyclooxygenase II” (Nycomed Austria GmbH, priority 1997, dated 2001).
